Results from patent US20050245452A1, “Pharmaceutical use of novispirins” (Novozymes A/S, priority 2004, published 2005).

Tested on: Staphylococcus aureus (ATCC 25923)
Test: Staphylococcus aureus wound infection in pigs (wound chambers, 4 hour time course)
Type: in vivo, Göttinger minipigs
Conditions: 1 ml applied
Description: The bacterial strain, Staphylococcus aureus, used in the study was ATCC 25923. The amino acid sequence of Novispirin G10 is shown in SEQ ID NO: 16.
Novispirin G10 was diluted in 0.01% acetic acid containing 0.1% BSA with a final concentration of 1 mg (substrate)/ml (solution); 100 micrograms/ml; 10 micrograms/ml and 1 microgram/ml. The carrier control was 0.01% acetic acid containing 0.1% BSA. As a positive control was used Synthetic Protegrin 1 (Charité, Institut f. Biochemie d. Humboldt Universität Berlin) diluted in 0.01% acetic acid containing 0.1% BSA with a final concentration of 100 micrograms/ml.
The chambers are made of one piece of titanium, have a screw top cover (also made of titanium) and were built in teamwork with Cranio Construct Bochum. The chambers have a height of 14 mm, an inner diameter of 25 mm and an outer diameter of 32 mm without baseplate (with baseplate: 50 mm).
After providing permission to conduct experiments with vertebrates in compliance with German animal protection laws, Göttinger minipigs (Fa. Ellegaard, Dalmose, Denmark; female, 6 months old, 25-30 kg weight) were chosen to implant the chambers on. The pigs were kept at least 2 weeks in the stable, fed a standard porcine diet and housed at 20° C. to 30° C. in an atmosphere of approximately 65% humidity with a light cycle of 12 hours on and 12 hours off. The animals used for this study appeared, during the experiments, clinically healthy—rectal temperature and body weight remained normal over the observed period.
Before wounding the skin was surgically prepared, washed with soap and disinfected with Octenisept (S&M, Norderstedt, Germany) for five minutes. Twelve BO-Chambers were implanted on the pigs back and flank between the base of the scapula and the iliac crest. The wounds were spaced a minimum of 5 cm apart and were created in four rows parallel to the columna vertebralis, two rows on each side of the columna vertebrtalis. The exact size and shape of the wounds were ensured by a special custom-made “round-scalpel” (also built in teamwork with Cranio Construct Bochum), which has a diameter of 33 mm. Epidermal, dermal subcutaneous tissues were removed, possible bleedings stanched by bipolar diathermy. The chambers were placed with an additionally secant v-incision at positions 6 respectively 12 o'clock on the musculus thoracicus longus fascia and the muscle fascia of the external ripcage muscles. The incisions were sutured with 2/0 Monocryl followed by the closure of the chambers. Povidone-iodine salve (Betaisodonna-salve, Mundipharma, Austria) was smothered on the wound edges. The chambers were dressed with paraffin gauze (Jelonet, Smith & Nephew, Lohfelden, Germany) and sterile compresses. Dressings were changed every second day under sedation (as described above).
Bacterial Background of each chamber was measured every second day, to detect potential contamination. Only one contaminated chamber was detected. Seven days post operation ten chambers were inoculated with bacteria.
For bacteria progeny Staphylococcus aureus (ATCC 25923) was plated on LB-Agar plate and incubated at 37° C. for 18 hours. One colony was picked and transfered into 3 ml LB-Medium for over night culture at 37° C. at 300 rpm. Over night culture was diluted in 50 ml fresh LB-Medium and incubated for 2.5 hours at 37° C. at 200 rpm.
Bacteria were pelleted, 4000 rpm, 5 min, Mergafuge 1.0 R (Heraeus, Hanau, Germany), and resuspended in PBS. Amount of containg bacteria was detremined by OD600 nm-measurement and calculated as follows: Colony forming Unit/ml=OD600 nm×2.5×10^8 (bacteria)
To inoculate one chamber 5×10^8 were used.
The establishment of the infection was proven by the measurement of bacterial counts per chamber. All inoculated chambers were infected after two days. Chamber No. 2 keeps bacteria free.
At day four after infection the antimicrobial effect of the testing substrate was measured in a time course of 4 hours in duration. […]

Novispirin G10: novispirin antimicrobial polypeptide; amino acid sequence shown in SEQ ID NO: 16 (KNLRRIIRKGIHIIKKYG; Synthetic antimicrobial peptide)
Mean CFU per ml sample volume (chamber fluid) (1 mg/ml, 0 hours): 10700000 CFU/ml
Mean CFU per ml sample volume (chamber fluid) (1 mg/ml, 1 hour): 2817 CFU/ml
Mean CFU per ml sample volume (chamber fluid) (1 mg/ml, 2 hours): 2100 CFU/ml
Mean CFU per ml sample volume (chamber fluid) (1 mg/ml, 3 hours): 833 CFU/ml
Mean CFU per ml sample volume (chamber fluid) (1 mg/ml, 4 hours): 1233 CFU/ml
Mean CFU per ml sample volume (chamber fluid) (1 microgram/ml, 0 hours): 9060000 CFU/ml
Mean CFU per ml sample volume (chamber fluid) (1 microgram/ml, 1 hour): 2508333 CFU/ml
Mean CFU per ml sample volume (chamber fluid) (1 microgram/ml, 2 hours): 159067 CFU/ml
Mean CFU per ml sample volume (chamber fluid) (1 microgram/ml, 3 hours): 33858 CFU/ml
Mean CFU per ml sample volume (chamber fluid) (1 microgram/ml, 4 hours): 148333 CFU/ml
Mean CFU per ml sample volume (chamber fluid) (10 micrograms/ml, 0 hours): 5065000 CFU/ml
Mean CFU per ml sample volume (chamber fluid) (10 micrograms/ml, 1 hour): 440500 CFU/ml
Mean CFU per ml sample volume (chamber fluid) (10 micrograms/ml, 2 hours): 304500 CFU/ml
Mean CFU per ml sample volume (chamber fluid) (10 micrograms/ml, 3 hours): 40910 CFU/ml
Mean CFU per ml sample volume (chamber fluid) (10 micrograms/ml, 4 hours): 1563188 CFU/ml
Mean CFU per ml sample volume (chamber fluid) (100 micrograms/ml, 0 hours): 1330000 CFU/ml
Mean CFU per ml sample volume (chamber fluid) (100 micrograms/ml, 1 hour): 790033 CFU/ml
Mean CFU per ml sample volume (chamber fluid) (100 micrograms/ml, 2 hours): 195125 CFU/ml
Mean CFU per ml sample volume (chamber fluid) (100 micrograms/ml, 3 hours): 142765 CFU/ml
Mean CFU per ml sample volume (chamber fluid) (100 micrograms/ml, 4 hours): 8467 CFU/ml
